ChEMBL document CHEMBL3885861, “Open TG-GATES”

Organism: Rattus norvegicus
Assay: Open TG-GATES - Regimen: Single
Type: toxicity, organism-based, Sprague-Dawley
Set-up: regimen Single, gender Male, age 6 weeks
Settings: in vivo, iv, route intravenous injection; for KIDNEY_L / KIDNEY_R / KIDNEY_TOTAL: tissue Kidney; for LIVER: tissue Liver
[1] = 10 mg/kg, 3 h, tissue Blood, dose level Low
[2] = 10 mg/kg, 3 h, tissue Plasma, dose level Low
[3] = 10 mg/kg, 6 h, tissue Blood, dose level Low
[4] = 10 mg/kg, 6 h, tissue Plasma, dose level Low
[5] = 10 mg/kg, 9 h, tissue Blood, dose level Low
[6] = 10 mg/kg, 9 h, tissue Plasma, dose level Low
[7] = 10 mg/kg, 24 h, tissue Blood, dose level Low
[8] = 10 mg/kg, 24 h, tissue Plasma, dose level Low

**Q.** What does the source list for CARBOPLATIN?
**A.** Bas [1]: 0%; Eos [1]: 1%; Fbg [1]: 269.2 mg/dL; Hb [1]: 12.9 g/dL; Lym [1]: 80.4%; MCH [1]: 21.1 pg; MCHC [1]: 32%; MCV [1]: 66 fL; Mono [1]: 2.4%; PT [1]: 15.4 s; Plat [1]: 126.7 x10_4/uL; RBC [1]: 612.6 x10_4/ul; Ret [1]: 6.2%; WBC [1]: 92.7 x10_2/uL; KIDNEY_L (10 mg/kg, 3 h, dose level Low): 1 g; KIDNEY_R (10 mg/kg, 3 h, dose level Low): 0.9 g; KIDNEY_TOTAL (10 mg/kg, 3 h, dose level Low): 1.9 g; LIVER (10 mg/kg, 3 h, dose level Low): 9.7 g; ALP [2]: 1526 IU/L; ALT [2]: 43.6 IU/L; AST [2]: 85.4 IU/L; CRE [2]: 0.2 mg/dL; DBIL [2]: 0.002 mg/dL; GLC [2]: 185 mg/dL; IP [2]: 7.9 mg/dL; K [2]: 3.9 meq/L; LDH [2]: 228.2 IU/L; PL [2]: 124.8 mg/dL; RALB [2]: 2.9 g/dL; TBIL [2]: 0.016 mg/dL; TC [2]: 68.4 mg/dL; TG [2]: 55.2 mg/dL; TP [2]: 5.2 g/dL; gamma-GTP [2]: 1.2 IU/L; TERMINAL_BW (10 mg/kg, 6 h, dose level Low): 204.9 g; APTT [3]: 24.2 s; Bas [3]: 0%; Eos [3]: 1%; Fbg [3]: 286.8 mg/dL; Ht [3]: 41.2%; Lym [3]: 77.6%; MCH [3]: 20.6 pg; MCHC [3]: 32.2%; MCV [3]: 64 fL; Mono [3]: 2.8%; Neu [3]: 17.8%; PT [3]: 15.9 s; Plat [3]: 131 x10_4/uL; RBC [3]: 643.6 x10_4/ul; Ret [3]: 6.3%; WBC [3]: 115.8 x10_2/uL; KIDNEY_L (10 mg/kg, 6 h, dose level Low): 1 g; KIDNEY_R (10 mg/kg, 6 h, dose level Low): 1 g; KIDNEY_TOTAL (10 mg/kg, 6 h, dose level Low): 2 g; LIVER (10 mg/kg, 6 h, dose level Low): 9.1 g; ALP [4]: 1291.4 IU/L; ALT [4]: 43.4 IU/L; BUN [4]: 10 mg/dL; CRE [4]: 0.2 mg/dL; DBIL [4]: 0 mg/dL; GLC [4]: 180.6 mg/dL; IP [4]: 9.1 mg/dL; K [4]: 4.3 meq/L; LDH [4]: 174.2 IU/L; PL [4]: 134.6 mg/dL; RALB [4]: 3 g/dL; TBIL [4]: 0.016 mg/dL; TC [4]: 72.8 mg/dL; TG [4]: 76.2 mg/dL; TP [4]: 5.5 g/dL; gamma-GTP [4]: 1.6 IU/L; TERMINAL_BW (10 mg/kg, 9 h, dose level Low): 197.5 g; APTT [5]: 25.3 s; Bas [5]: 0%; Eos [5]: 1%; Fbg [5]: 294.6 mg/dL; Ht [5]: 40.2%; Lym [5]: 73%; MCHC [5]: 32.6%; Mono [5]: 2.4%; Neu [5]: 23.4%; PT [5]: 15.7 s; Plat [5]: 131.4 x10_4/uL; RBC [5]: 644.2 x10_4/ul; Ret [5]: 5.7%; WBC [5]: 86.3 x10_2/uL; KIDNEY_L (10 mg/kg, 9 h, dose level Low): 0.9 g; KIDNEY_R (10 mg/kg, 9 h, dose level Low): 0.9 g; KIDNEY_TOTAL (10 mg/kg, 9 h, dose level Low): 1.8 g; LIVER (10 mg/kg, 9 h, dose level Low): 8 g; ALP [6]: 1344 IU/L; ALT [6]: 37.4 IU/L; AST [6]: 77 IU/L; BUN [6]: 11.2 mg/dL; CRE [6]: 0.2 mg/dL; DBIL [6]: 0 mg/dL; GLC [6]: 177.8 mg/dL; IP [6]: 9.3 mg/dL; K [6]: 4.4 meq/L; LDH [6]: 180.2 IU/L; Na [6]: 140 meq/L; PL [6]: 121 mg/dL; RALB [6]: 2.9 g/dL; TBIL [6]: 0.012 mg/dL; TC [6]: 71.8 mg/dL; TG [6]: 44.6 mg/dL; TP [6]: 5.3 g/dL; gamma-GTP [6]: 1.4 IU/L; TERMINAL_BW (10 mg/kg, 24 h, dose level Low): 204.3 g; APTT [7]: 23.3 s; Bas [7]: 0%; Eos [7]: 0.6%; Fbg [7]: 298.2 mg/dL; Ht [7]: 40.6%; Lym [7]: 80.2%; MCHC [7]: 32.1%; MCV [7]: 63.8 fL; Mono [7]: 2.8%; PT [7]: 16.6 s; Plat [7]: 122.3 x10_4/uL; RBC [7]: 637.8 x10_4/ul; Ret [7]: 4.7%; WBC [7]: 78.9 x10_2/uL; KIDNEY_L (10 mg/kg, 24 h, dose level Low): 0.9 g; KIDNEY_R (10 mg/kg, 24 h, dose level Low): 1 g; KIDNEY_TOTAL (10 mg/kg, 24 h, dose level Low): 1.9 g; LIVER (10 mg/kg, 24 h, dose level Low): 9 g; ALP [8]: 1748.8 IU/L; AST [8]: 69.8 IU/L; BUN [8]: 15.6 mg/dL; CRE [8]: 0.2 mg/dL; DBIL [8]: 0 mg/dL; GLC [8]: 180.8 mg/dL; IP [8]: 7.2 mg/dL; K [8]: 4.5 meq/L; LDH [8]: 208.6 IU/L; PL [8]: 140.6 mg/dL; RALB [8]: 3.1 g/dL; TBIL [8]: 0.006 mg/dL; TC [8]: 74.2 mg/dL; TG [8]: 75.6 mg/dL; TP [8]: 5.5 g/dL; gamma-GTP [8]: 1.6 IU/L; TERMINAL_BW (30 mg/kg, 3 h, dose level Middle): 205.5 g
